# Like-named read-outs stand apart in the source and are kept apart here.
# Key:
# [1] = test system: Akt phosphorylated at Ser473 in PC-3 cells; test: Cellular assay: phosphorylation of Akt at Ser473 in PC-3 cells (MSD ELISA); assay type: cell-based; conditions: PC-3 cells, 60 min compound incubation, MSD ELISA, read-out: IC50 pAkt_S473
# In short: (§1)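 PC-3 cells were exposed to compound or 0.3% DMSO for 60 min at 37° C, 5% CO2, then lysed in ice-cold buffer. Phospho-Akt was captured on site-specific antibody-coated plates and detected with Sulfo-tag anti-total Akt by electrochemiluminescence. IC50 values came from five-concentration response curves.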
# [2] = molecular target: T1, kinase enzymes (Homo sapiens, UniProt P48736); test: Enzyme binding assay (KINOMEscan, DiscoveRx), further kinases of Table A; conditions: PIK3Cγ_h
# T1 construct: purchased DiscoveRx Corporation, San Diego (contract service, KINOMEscan)
# In short: (§2)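 Kinase binding measured via KINOMEscan, reported as affinity.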
# [3] = molecular target: T2, kinase enzymes (Homo sapiens, UniProt P42345); test: as above; conditions: MTOR_h
# T2 construct: purchased DiscoveRx Corporation, San Diego (contract service, KINOMEscan)
# In short: as §2
# [4] = molecular target: T3, kinase enzymes (Homo sapiens, UniProt P42336); test: as above; conditions: PIK3Cα_h
# T3 construct: purchased DiscoveRx Corporation, San Diego (contract service, KINOMEscan)
# In short: as §2
# [5] = test system: Akt phosphorylated at Thr308 in PC-3 cells; test: Cellular assay: phosphorylation of Akt at Thr308 in PC-3 cells (MSD ELISA); assay type: cell-based; conditions: PC-3 cells, 60 min compound incubation, MSD ELISA, read-out: IC50 pAkt_Thr308
# In short: as §1
# [6] = molecular target: T4, PI3Kβ (Homo sapiens, UniProt P42338); test: Enzyme binding assay (KINOMEscan, DiscoveRx); conditions: PIK3Cβ_h, read-out: Kd PIK3Cβ_h
# T4 construct: purchased DiscoveRx Corporation, San Diego (contract service, KINOMEscan)
# In short: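 Reported Kd (nM) reflects inhibitor binding to the kinase, as measured by KINOMEscan technology.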
# [7] = molecular target: T5, PI3Kδ (Homo sapiens, UniProt O00329); test: Enzyme binding assay (KINOMEscan, DiscoveRx); conditions: PIK3Cδ_h
# T5 construct: purchased DiscoveRx Corporation, San Diego (contract service, KINOMEscan)
# T5 sequence (O00329 1-1044): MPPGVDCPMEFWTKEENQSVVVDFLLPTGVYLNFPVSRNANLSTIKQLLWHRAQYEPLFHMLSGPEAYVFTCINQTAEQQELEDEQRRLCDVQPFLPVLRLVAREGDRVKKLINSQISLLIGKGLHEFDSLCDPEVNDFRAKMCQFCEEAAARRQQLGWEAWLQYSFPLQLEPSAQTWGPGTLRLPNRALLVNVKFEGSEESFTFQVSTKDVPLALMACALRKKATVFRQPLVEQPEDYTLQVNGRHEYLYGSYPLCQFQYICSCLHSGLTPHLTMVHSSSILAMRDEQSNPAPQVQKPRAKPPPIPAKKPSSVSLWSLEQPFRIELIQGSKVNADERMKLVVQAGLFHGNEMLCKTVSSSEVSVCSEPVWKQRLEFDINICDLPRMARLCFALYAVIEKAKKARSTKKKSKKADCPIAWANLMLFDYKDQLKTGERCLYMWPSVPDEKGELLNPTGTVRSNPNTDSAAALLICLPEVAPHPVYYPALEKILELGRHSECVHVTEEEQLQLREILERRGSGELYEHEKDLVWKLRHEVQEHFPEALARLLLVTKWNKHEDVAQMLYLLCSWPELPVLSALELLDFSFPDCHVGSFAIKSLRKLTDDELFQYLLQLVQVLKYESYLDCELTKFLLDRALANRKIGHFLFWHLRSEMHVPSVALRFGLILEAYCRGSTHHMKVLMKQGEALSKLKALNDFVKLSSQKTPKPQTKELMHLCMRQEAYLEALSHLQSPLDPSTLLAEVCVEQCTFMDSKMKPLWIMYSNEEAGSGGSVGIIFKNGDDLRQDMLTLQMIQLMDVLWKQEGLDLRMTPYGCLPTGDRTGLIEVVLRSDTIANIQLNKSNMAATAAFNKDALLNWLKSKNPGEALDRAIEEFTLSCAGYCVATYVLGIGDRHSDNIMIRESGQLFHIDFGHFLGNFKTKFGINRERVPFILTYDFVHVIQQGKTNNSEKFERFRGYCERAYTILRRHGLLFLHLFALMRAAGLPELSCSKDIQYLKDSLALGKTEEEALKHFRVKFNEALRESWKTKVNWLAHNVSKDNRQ
# In short: as §2
# T3 sequence (P42336 whole entry): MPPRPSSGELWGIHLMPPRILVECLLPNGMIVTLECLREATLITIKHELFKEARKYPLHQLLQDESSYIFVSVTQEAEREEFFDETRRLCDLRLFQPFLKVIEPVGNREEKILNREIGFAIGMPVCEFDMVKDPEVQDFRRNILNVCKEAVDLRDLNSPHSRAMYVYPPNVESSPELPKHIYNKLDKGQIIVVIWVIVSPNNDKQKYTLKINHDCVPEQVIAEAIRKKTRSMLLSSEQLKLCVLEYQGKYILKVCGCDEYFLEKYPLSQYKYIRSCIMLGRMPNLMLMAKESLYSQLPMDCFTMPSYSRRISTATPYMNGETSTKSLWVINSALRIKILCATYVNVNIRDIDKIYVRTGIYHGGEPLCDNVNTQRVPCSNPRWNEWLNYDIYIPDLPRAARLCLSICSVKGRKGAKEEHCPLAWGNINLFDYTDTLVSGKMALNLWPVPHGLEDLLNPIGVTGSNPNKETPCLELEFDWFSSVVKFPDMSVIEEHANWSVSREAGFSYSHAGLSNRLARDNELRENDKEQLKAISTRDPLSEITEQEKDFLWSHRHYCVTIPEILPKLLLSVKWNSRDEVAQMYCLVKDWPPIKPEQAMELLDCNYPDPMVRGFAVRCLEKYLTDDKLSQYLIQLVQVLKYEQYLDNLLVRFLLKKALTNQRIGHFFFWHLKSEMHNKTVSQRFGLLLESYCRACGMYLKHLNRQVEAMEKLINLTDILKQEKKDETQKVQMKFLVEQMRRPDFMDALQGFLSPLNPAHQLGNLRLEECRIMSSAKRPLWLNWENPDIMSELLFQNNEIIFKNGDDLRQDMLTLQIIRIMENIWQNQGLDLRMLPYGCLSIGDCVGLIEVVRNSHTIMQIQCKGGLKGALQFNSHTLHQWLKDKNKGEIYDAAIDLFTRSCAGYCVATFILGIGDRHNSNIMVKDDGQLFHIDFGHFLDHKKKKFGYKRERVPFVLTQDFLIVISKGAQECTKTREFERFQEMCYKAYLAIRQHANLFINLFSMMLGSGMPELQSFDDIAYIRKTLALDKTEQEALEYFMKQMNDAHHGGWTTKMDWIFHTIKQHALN
# T4 sequence (P42338 whole entry): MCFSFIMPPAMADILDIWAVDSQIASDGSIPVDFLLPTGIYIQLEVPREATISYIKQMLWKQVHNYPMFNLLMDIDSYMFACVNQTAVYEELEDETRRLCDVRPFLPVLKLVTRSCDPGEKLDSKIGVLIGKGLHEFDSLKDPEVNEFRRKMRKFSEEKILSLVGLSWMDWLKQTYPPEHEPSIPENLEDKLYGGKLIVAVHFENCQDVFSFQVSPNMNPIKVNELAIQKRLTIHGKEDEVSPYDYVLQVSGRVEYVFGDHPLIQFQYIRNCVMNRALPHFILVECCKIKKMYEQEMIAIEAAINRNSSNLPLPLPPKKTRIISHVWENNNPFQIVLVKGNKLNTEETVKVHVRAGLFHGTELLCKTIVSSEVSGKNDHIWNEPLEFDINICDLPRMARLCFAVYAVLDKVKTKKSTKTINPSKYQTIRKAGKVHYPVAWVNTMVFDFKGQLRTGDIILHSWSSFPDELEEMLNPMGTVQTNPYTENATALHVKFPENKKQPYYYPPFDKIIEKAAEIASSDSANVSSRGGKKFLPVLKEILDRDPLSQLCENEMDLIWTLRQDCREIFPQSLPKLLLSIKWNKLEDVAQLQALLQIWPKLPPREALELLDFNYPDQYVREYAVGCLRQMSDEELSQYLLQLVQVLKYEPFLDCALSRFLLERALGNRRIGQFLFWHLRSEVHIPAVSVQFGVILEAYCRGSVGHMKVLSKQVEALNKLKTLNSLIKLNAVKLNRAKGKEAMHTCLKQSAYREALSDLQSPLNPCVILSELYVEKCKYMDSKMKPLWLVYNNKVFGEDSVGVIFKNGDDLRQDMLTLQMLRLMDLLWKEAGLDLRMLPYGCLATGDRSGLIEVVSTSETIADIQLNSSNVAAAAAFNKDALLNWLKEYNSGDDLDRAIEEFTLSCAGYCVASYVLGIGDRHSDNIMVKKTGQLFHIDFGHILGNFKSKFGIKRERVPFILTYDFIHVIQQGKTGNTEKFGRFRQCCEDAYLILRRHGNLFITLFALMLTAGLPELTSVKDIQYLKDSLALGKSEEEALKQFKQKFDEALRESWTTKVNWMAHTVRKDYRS
# T1 sequence (P48736 whole entry): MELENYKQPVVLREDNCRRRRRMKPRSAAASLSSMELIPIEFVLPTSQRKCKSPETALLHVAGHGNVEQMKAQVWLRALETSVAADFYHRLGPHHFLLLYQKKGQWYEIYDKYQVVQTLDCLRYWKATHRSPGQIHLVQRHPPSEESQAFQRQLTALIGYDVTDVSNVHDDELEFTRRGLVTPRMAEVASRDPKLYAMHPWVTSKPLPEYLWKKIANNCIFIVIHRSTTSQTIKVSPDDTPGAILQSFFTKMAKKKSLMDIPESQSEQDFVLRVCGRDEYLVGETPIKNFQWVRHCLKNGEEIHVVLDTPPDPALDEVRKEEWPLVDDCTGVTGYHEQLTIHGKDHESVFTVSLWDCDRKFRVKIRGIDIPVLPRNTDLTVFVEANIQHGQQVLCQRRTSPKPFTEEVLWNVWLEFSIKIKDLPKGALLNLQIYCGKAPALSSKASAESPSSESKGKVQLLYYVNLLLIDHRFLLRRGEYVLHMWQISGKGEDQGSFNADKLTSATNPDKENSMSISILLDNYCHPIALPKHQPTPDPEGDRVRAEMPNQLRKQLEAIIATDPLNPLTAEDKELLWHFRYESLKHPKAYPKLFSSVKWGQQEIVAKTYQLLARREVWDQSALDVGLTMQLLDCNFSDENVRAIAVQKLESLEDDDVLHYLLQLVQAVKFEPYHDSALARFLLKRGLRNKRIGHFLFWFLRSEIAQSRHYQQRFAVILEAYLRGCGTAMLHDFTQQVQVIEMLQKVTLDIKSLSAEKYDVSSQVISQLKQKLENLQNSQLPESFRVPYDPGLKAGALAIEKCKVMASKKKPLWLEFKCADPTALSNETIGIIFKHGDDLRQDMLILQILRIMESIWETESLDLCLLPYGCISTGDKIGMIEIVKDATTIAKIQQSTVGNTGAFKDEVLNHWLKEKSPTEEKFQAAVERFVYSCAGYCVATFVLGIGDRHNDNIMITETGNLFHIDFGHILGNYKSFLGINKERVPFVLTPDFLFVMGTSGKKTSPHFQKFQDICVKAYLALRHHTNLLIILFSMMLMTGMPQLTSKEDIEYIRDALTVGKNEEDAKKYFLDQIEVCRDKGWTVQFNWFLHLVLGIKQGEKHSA
"IC50 ([1]; Homo sapiens, PC-3, 1 h)",Kd [2],Kd [3],Kd [4],"IC50 ([5]; Homo sapiens, PC-3, 1 h)",melting point,Kd [6],Kd [7],IC50 [5],IC50 [1],Structure (SMILES)
~275 nM,8910 nM,> 30200 nM,1480 nM,–,53 °C,3 nM,331 nM,~132 nM,–,"CC(Oc1cc(F)cc(F)c1)c1cc(C(=O)N(C)C)cc2ncc(C3=CCOCC3)nc12 (single isomer, unassigned) [Compound 403a]"
–,21900 nM,32400 nM,2820 nM,–,110 °C,17 nM,603 nM,98 nM,155 nM,"CC(Nc1cc(F)c(F)c(F)c1)c1cc(C(=O)NCC(C)(C)O)cc2ncc(N3CCOCC3)nc12 (single isomer, unassigned) [Compound 292a]"
–,2340 nM,20000 nM,22900 nM,–,90.8 °C,851 nM,> 30200 nM,> 513 nM,> 513 nM,"CC(Nc1cccc(F)c1)c1cc(C(=O)NC[C@@H](C)O)cc2ncc(N3CCOCC3)nc12 (single isomer, unassigned) [Compound 338b]"

# Continued, molecule first:
Structure (SMILES),"IC50 ([1]; Homo sapiens, PC-3, 1 h)",Kd [2],Kd [3],Kd [4],"IC50 ([5]; Homo sapiens, PC-3, 1 h)",melting point,Kd [6],Kd [7],IC50 [5],IC50 [1]
O=C(NCCO)c1cc(NCc2cccc(F)c2C2CCNCC2)c2nc(N3CCOCC3)cnc2c1 [Compound 317],> 513 nM,20900 nM,> 30200 nM,6170 nM,> 513 nM,167 °C,13 nM,708 nM,–,–
Cc1c(CNc2cc(C(=O)N(C)C)cc3ncc(N4CCOCC4)nc23)cccc1C(F)(F)F [Compound 399],> 513 nM,9330 nM,> 30200 nM,2820 nM,> 513 nM,202 °C,45 nM,5250 nM,–,–
CC(Oc1ccccc1)c1cc(C(=O)N(C)C)cc2ncc(N3CCOCC3)nc12 (stereo not drawn) [Compound 151],490 nM,8710 nM,> 30200 nM,3630 nM,66 nM,80 °C,8 nM,813 nM,–,–
"CC(Nc1cc(F)cc(F)c1)c1cc(CN2CC3(C2)CS(=O)(=O)C3)cc2ncc(N3CCOCC3)nc12 (single isomer, unassigned) [Compound 160]",–,9770 nM,19500 nM,813 nM,–,229 °C,2 nM,575 nM,23 nM,58 nM
CNCCNC(=O)c1cc([C@@H](C)Oc2cccc(F)c2)c2nc(N3CCOCC3)cnc2c1 [Compound 122a],–,7970 nM,14100 nM,3700 nM,–,116 °C,3 nM,660 nM,9 nM,12 nM
CN(C)C(=O)c1cc(N(C)Cc2cc(F)cc(F)c2)c2nc(N3CCOCC3)cnc2c1 [Compound 358],> 513 nM,17800 nM,> 30200 nM,10000 nM,> 513 nM,80 °C,148 nM,2240 nM,–,–
CNCCNC(=O)c1cc(NCc2cc(F)cc(F)c2)c2nc(N3CCOCC3)cnc2c1 [Compound 340],76 nM,5010 nM,12000 nM,1510 nM,50 nM,180 °C,2 nM,372 nM,–,–
CC(Nc1cc(F)cc(F)c1)c1cc(C(=O)N2CCN(CC(F)(F)F)CC2)cc2ncc(N3CCOCC3)nc12 (stereo not drawn) [Compound 171],155 nM,> 30200 nM,> 30200 nM,2190 nM,102 nM,125 °C,3 nM,575 nM,–,–
CC(Nc1cc(F)cc(F)c1)c1cc(C(=O)N(C)CCO)cc2ncc(N3CCOCC3)nc12 (stereo not drawn) [Compound 145],~32 nM,1860 nM,23400 nM,537 nM,9 nM,80 °C,1 nM,102 nM,–,–

# — US10526316B2, “Quinoxaline and pyridopyrazine derivatives as PI3Kβ inhibitors” (Janssen Pharmaceutica NV, priority 2015, dated 2020)
